# From article PMC9718779, “Discrete LAT condensates encode antigen information from single pMHC:TCR binding events” (Nature Communications, 2022)
# Tested on: LAT condensation in primary mouse T cells
# Test: Ligand potency for LAT condensation (cumulative distinct LAT condensates per cell)
# Type: cell-based
# Text: Single-molecule TIRF images are taken at the same power dosage (power*exposure) , either by high laser illumination intensity (8 mW) and short exposure time (25 ms) or by low laser illumination intensity (0.4 mW) and long exposure time (500 ms). Single-molecule TIRF images of long exposure time (500 ms) were collected every 2 to 4 s to localize single pMHC-TCR using a laser illumination intensity of 0.4 mW. LAT-eGFP was monitored at 0.4 mW every 2 to 4 s. When cells were imaged to measure LAT condensation only, the cells were imaged as they landed, or within 60 s of landing, for a duration of 300 s. Cells imaged for NFAT-mCherry was done by epifluorescence using 150-ms exposure time every 50 s at 3 and 6 μm above the coverslip to monitor NFAT dynamics. NFAT monitoring continued for 30 min unless otherwise stated.
# LAT condensates were initially tracked with TrackMate’s automated workflows and then each track was manually adjusted for proper linking/detection. A pMHC binding event was considered productive if there existed a LAT condensate trajectory whose first frame of detection could be found within 250 nm of the binding event.
# Data presented in Fig. 5 originated from T cells that were exposed to supported membranes containing 600 molecules μm^−2 of ICAM-1 and 0.5 molecules μm^−2 pMHC after loading MHC with one of the peptides from the panel. […]
sequence,measurement,setting,value
"ANERAELIAYLTQAAEK [T102E, null altered peptide]",rank of productivity in LAT condensate number,"MCC, T102S, ER60, T102E, cumulative time-series Fig. 5b",least
same,LAT signal of null pMHC + ICAM-1 condition,versus ICAM-1 only,did not produce any LAT signal over background levels
